# Measurements reported in the supplement of paper PMC10307832.
# Columns and labels:
# Experiment in all cases: relative viability (nuclei count vs DMSO), 5 days (fraction); higher = more cells survive
# [1] = compound: CC1=CC(=C(N1C2=CC=C(C=C2)Cl)C)C(=O)CN3CCCCC3 [IU1-47] + CCNC(=O)c1noc(-c2cc(C(C)C)c(O)cc2O)c1-c1ccc(CN2CCOCC2)cc1 [Luminespib] (partner 0.01 µM)
# How it was run: (§1)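 Relative viability divides the nuclei count in treated wells by that in vehicle wells. Lung cancer cell lines were seeded in 1536-well plates, dosed by pin tool the next day, and fixed and stained after 5 days in one step with final 0.05% Triton X-100, 1% formaldehyde and 1 ug/ml Hoechst. Dosing was a single drug or a fixed anchor-drug dose plus five library-drug doses (not always all listed) in √10 steps, and values are medians of duplicate plates imaged at 4×.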
# [2] = compound: CC1=CC(=C(N1C2=CC=C(C=C2)Cl)C)C(=O)CN3CCCCC3 [IU1-47] + N=C(N)NC(=N)NCCc1ccccc1 [Phenformin] (partner 250 µM)
# How it was run: as §1
# [3] = compound: CC1=CC(=C(N1C2=CC=C(C=C2)Cl)C)C(=O)CN3CCCCC3 [IU1-47] + Nc1ncn([C@H]2C[C@H](O)[C@@H](CO)O2)c(=O)n1 [Decitabine] (partner 2 µM)
# How it was run: as §1
# [4] = compound: Cc1nc(C(=O)NCC(=O)O)c(O)c2ccc(Oc3ccccc3)cc12 [FG-4592] + C[C@]1(O)C[C@@H](c2nc(-c3ccc4ccc(-c5ccccc5)nc4c3)c3c(N)nccn32)C1 [Linsitinib] (partner 1 µM)
# How it was run: as §1
Cell Line,relative viability ([1]; first compound 0.08 µM),relative viability ([1]; first compound 0.253 µM),relative viability ([1]; first compound 0.8 µM),relative viability ([1]; first compound 8 µM),relative viability ([2]; first compound 0.08 µM),relative viability ([2]; first compound 0.253 µM),relative viability ([2]; first compound 0.8 µM),relative viability ([2]; first compound 8 µM),relative viability ([3]; first compound 0.08 µM),relative viability ([3]; first compound 0.253 µM),relative viability ([3]; first compound 0.8 µM),relative viability ([3]; first compound 2.53 µM),relative viability ([3]; first compound 8 µM),relative viability ([4]; first compound 0.08 µM),relative viability ([4]; first compound 0.253 µM),relative viability ([4]; first compound 0.8 µM),relative viability ([4]; first compound 2.53 µM),relative viability ([4]; first compound 8 µM),relative viability ([1]; first compound 2.53 µM),relative viability ([2]; first compound 2.53 µM)
NCI-H2126,0.928,0.975,0.949,0.899,0.535,0.515,0.508,0.529,0.564,0.584,0.599,0.544,0.583,0.68,0.73,0.593,0.699,0.655,–,–
NCI-H3122,–,0.08,0.0904,0.106,0.398,0.373,0.366,0.347,0.416,0.402,0.517,0.491,0.449,0.95,1.03,1.07,1.02,0.816,0.108,0.372
NCI-H1975,0.142,0.198,0.199,0.37,0.411,0.411,0.409,0.384,0.397,0.381,0.585,0.361,0.378,1.01,0.902,1.01,0.96,0.752,0.228,0.419
NCI-H1944,0.989,0.764,0.832,0.778,0.2,0.192,0.199,0.168,0.446,0.474,0.419,0.426,0.388,1.15,1.16,1.01,1.2,1.04,0.729,0.216
LU99A,0.32,0.182,0.273,0.259,0.846,0.838,0.856,0.904,0.968,0.824,0.852,0.883,0.768,0.488,0.565,0.46,0.483,0.548,0.302,0.813
SW 1573,0.196,0.179,0.129,0.23,0.394,0.353,0.367,0.382,0.529,0.599,0.542,0.342,0.506,0.732,0.714,0.893,0.721,0.782,0.261,0.421
NCI-H2347,0.233,0.363,0.642,0.32,0.387,0.413,0.336,0.345,0.662,0.663,0.609,0.615,0.581,1.09,–,0.822,0.927,1.01,0.513,0.496
NCI-H2009,1.09,1.04,0.986,1.05,0.519,0.501,0.5,0.412,0.36,0.448,0.366,0.382,0.406,1.19,1.08,1.28,1.21,1.19,1.01,0.486
HCC-78,–,–,–,–,0.679,0.691,0.671,0.617,0.643,0.682,0.71,0.668,0.723,0.599,0.476,0.374,0.494,0.506,–,0.671
